Legend:
[1] = test system: cisplatin-induced acute vomiting in dogs; test: Cisplatin-induced acute vomiting in dogs, compound orally given; format: in vivo, beagle dogs; conditions: cisplatin 3 mg/kg i.v.; for Duration of vomiting (in hour;, mean ± SD) / Frequency of vomiting (mean ± SD) / Number of dogs with vomiting/number of tested dogs / Time period until first vomiting (in hour;, mean ± SD): 5 hours
Protocol: 3 or 4 beagle dogs (7.9 to 13.3 kg), male or female, were used per one group. Cisplatin was intravenously administered at 3 mg/3 ml/kg. One hour before cisplatin dosing, a small volume of a feed was given to the animals. 30 minutes before cisplatin administration, predetermined doses of the compound No. 3 were orally given. Similarly, 0.5 % methyl cellulose solution was orally given to the control animals under no fasting. The frequency of vomiting was counted in number, up to 5 hours after cisplatin dosing.
The compound No. 3 was suspended in 0.5 % methyl cellulose solution to predetermined concentrations, for oral dosing at a ratio of 1 ml per 1 kg body weight. Additionally, the 0.5 % methyl cellulose solution was orally given at a ratio of 1 ml per 1 kg body weight. The data relating to the frequency of vomiting, the time period (latency) until first vomiting and the time period from the occurrence of vomiting to the termination thereof were statistically analyzed by the Dunnett test, with reference to the difference from the control group.
The acute retching suppression ratio and acute vomiting suppression ratio were calculated by the following formula. [Frequency of retching or vomiting in control] - [Frequency of retching or vomiting in animals dosed with the compound No. 3] / [Frequency of retching or vomiting in control] x 100 (%) [formula]

[2] = test system: acute vomiting induced by cisplatin in ferrets; test: Acute vomiting induced by cisplatin in ferrets, compound intraperitoneally given; format: in vivo; conditions: 1 mg/kg i.p., cisplatin 10 mg/kg i.p.
Protocol: 6 to 9 male ferrets (1.2 to 1.7 kg) per one group were used. Cisplatin was intraperitoneally given at 10 mg/kg. 30 minutes prior to cisplatin administration, predetermined doses of the compound No. 3 were intraperitoneally given to the animals under fasting. Similarly, PEG 400 was intraperitoneally given to a control animal group under fasting. The frequency of vomiting was counted in number, up to 5 hours after cisplatin administration.
The compound No. 3 was dissolved in PEG 400, for intraperitoneal dosing at a ratio of 1 ml per 1 kg body weight. Additionally, PEG 400 was intraperitoneally given at a ratio of 1 ml per 1 kg body weight. The data relating to the frequency of vomiting, the latency and the time period from the occurrence of vomiting to the termination thereof were statistically analyzed by the t test, with reference to the difference from the control group.
(§1) The acute retching suppression ratio and acute vomiting suppression ratio were determined in the same manner as in Example 1,3.

[3] = test system: cisplatin-induced acute vomiting in dogs; test: Cisplatin-induced acute vomiting in dogs, compound intravenously given; format: in vivo, beagle dogs; conditions: cisplatin 3 mg/kg i.v.; for Duration of vomiting (in hour;, mean ± SD) / Frequency of vomiting (mean ± SD) / Number of dogs with vomiting/number of tested dogs / Time period until first vomiting (in hour;, mean ± SD): 5 hours
Protocol: Male or female 3 beagle dogs (7.3 to 12.0 kg) per one group were used. Cisplatin was intravenously administered at 3 mg/3 ml/kg. 30 minutes before cisplatin administration, predetermined doses of the compound No. 3 were intravenously given to the animals under fasting. Similarly, a predetermined volume of PEG 400 was intravenously given to a control animal group under fasting.
The compound No. 3 was dissolved in PEG 400 to predetermined concentrations, for intravenous dosing at a ratio of 1 ml per 1 kg body weight. Additionally, PEG 400 was intravenously given at a ratio of 1 ml per 1 kg body weight. The data relating to the frequency of vomiting, the latency and the time period from the occurrence of vomiting to the termination thereof were statistically analyzed by the Dunnett test, with reference to the difference from the control group.
as §1

SMILES: Cc1ccc(-c2c3n(c(=O)c4ncccc24)CC[C@@H](C)CN(Cc2cc(C(F)(F)F)cc(C(F)(F)F)c2)C3=O)cc1 [Cpd. No.3, (9R)-7-[3,5-bis(trifluoromethyl)benzyl]-6,7,8,9,10,11-hexahydro-9-methyl-5-(4-methylphenyl)-6,13-dioxo-13H-[1,4]diazocino[2,1-g][1,7]naphthylidine]
- Suppression ratio of acute vomiting ([1]; 1 mg/kg p.o.): 18 % NS
- Duration of vomiting (in hour;, mean ± SD) ([1]; 1 mg/kg p.o.): 1.5 ± 0.2 h
- Frequency of vomiting (mean ± SD) ([1]; 1 mg/kg p.o.): 11.3 ± 0.5
- Number of dogs with vomiting/number of tested dogs ([1]; 1 mg/kg p.o.): 4/4
- Time period until first vomiting (in hour;, mean ± SD) ([1]; 1 mg/kg p.o.): 1.6 ± 0.2 h
- Effect on cisplatin-induced vomiting (in words) ([1]; 3 mg/kg or higher p.o.): significantly suppressed
- Suppression ratio of acute vomiting ([1]; 3 mg/kg p.o.): 54 % NS
- Duration of vomiting (in hour;, mean ± SD) ([1]; 3 mg/kg p.o.): 1.1 ± 0.2 h
- Frequency of vomiting (mean ± SD) ([1]; 3 mg/kg p.o.): 6.3 ± 0.8 a
- Number of dogs with vomiting/number of tested dogs ([1]; 3 mg/kg p.o.): 4/4
- Time period until first vomiting (in hour;, mean ± SD) ([1]; 3 mg/kg p.o.): 1.9 ± 0.1 h
- Effect on cisplatin-induced vomiting (in words) ([1]; 10 mg/kg p.o.): almost completely suppressed
- Effect on the latency (in words) ([1]; 10 mg/kg p.o.): prolonged
- Suppression ratio of acute vomiting ([1]; 10 mg/kg p.o.): 93 % b
- Duration of vomiting (in hour;, mean ± SD) ([1]; 10 mg/kg p.o.): 0.2 ± 0.2 a hour
- Frequency of vomiting (mean ± SD) ([1]; 10 mg/kg p.o.): 1.0 ± 0.7 a
- Number of dogs with vomiting/number of tested dogs ([1]; 10 mg/kg p.o.): 2/4
- Time period until first vomiting (in hour;, mean ± SD) ([1]; 10 mg/kg p.o.): 3.6 ± 0.8 a hour
- Effect on cisplatin-induced retching and actual vomiting (in words) [2]: significantly suppressed
- Suppression ratio of acute retching [2]: 53 % b
- Suppression ratio of acute vomiting [2]: 49 % a
- Duration of retching (in minute, mean ± SD) ([2]; 5 hours): 2.6 ± 0.3 min
- Duration of vomiting (in minute, mean ± SD) ([2]; 5 hours): 1.7 ± 0.3 b minute
- Frequency of retching (mean ± SD) ([2]; 5 hours): 57.5 ± 6.2 b
- Frequency of vomiting (mean ± SD) ([2]; 5 hours): 5.7 ± 1.0 a
- Number of ferrets with retching /number of tested ferrets ([2]; 5 hours): 6/6
- Number of ferrets with vomiting /number of tested ferrets ([2]; 5 hours): 6/6
- Time period until first retching (in minute, mean ± SD) ([2]; 5 hours): 1.5 ± 0.1 min
- Time period until first vomiting (in minute, mean ± SD) ([2]; 5 hours): 1.8 ± 0.1 min
- Suppression ratio of acute vomiting ([3]; 0.3 mg/kg i.v.): 34 % b
- Duration of vomiting (in hour;, mean ± SD) ([3]; 0.3 mg/kg i.v.): 1.6 ± 0.2 h
- Frequency of vomiting (mean ± SD) ([3]; 0.3 mg/kg i.v.): 12.0 ± 1.5a
- Number of dogs with vomiting/number of tested dogs ([3]; 0.3 mg/kg i.v.): 3/3
- Time period until first vomiting (in hour;, mean ± SD) ([3]; 0.3 mg/kg i.v.): 1.6 ± 0.2 h
- Effect on cisplatin-induced vomiting (in words) ([3]; 0.3 mg/kg or higher i.v.): significantly suppressed
- Suppression ratio of acute vomiting ([3]; 1 mg/kg i.v.): 71 % b
- Duration of vomiting (in hour;, mean ± SD) ([3]; 1 mg/kg i.v.): 1.7 ± 0.5 h
- Frequency of vomiting (mean ± SD) ([3]; 1 mg/kg i.v.): 5.3 ± 1.2 a
- Number of dogs with vomiting/number of tested dogs ([3]; 1 mg/kg i.v.): 3/3
- Time period until first vomiting (in hour;, mean ± SD) ([3]; 1 mg/kg i.v.): 1.4 ± 0.3 h
- Effect on cisplatin-induced vomiting (in words) ([3]; 3 mg/kg i.v.): almost completely suppressed
- Suppression ratio of acute vomiting ([3]; 3 mg/kg i.v.): 96 % b
- Duration of vomiting (in hour;, mean ± SD) ([3]; 3 mg/kg i.v.): 0.1 ± 0.1 a hour
- Frequency of vomiting (mean ± SD) ([3]; 3 mg/kg i.v.): 0.7 ± 0.7 a
- Number of dogs with vomiting/number of tested dogs ([3]; 3 mg/kg i.v.): 1/3
- Time period until first vomiting (in hour;, mean ± SD) ([3]; 3 mg/kg i.v.): 3.9 ± 1.1 a hour
- Effect on the latency (in words) ([3]; i.v.): prolonged

— patent EP1145714A1, “DRUGS” (Takeda Chemical Industries, Ltd., priority 1998, dated 2000)
